Patent publication US20030232986A1, “Inhibitors of caspases” (Vertex Pharmaceuticals Incorporated, priority 1998, published 2003)

Columns and labels:
Caspase-1 = target: T1, Caspase-1 (Homo sapiens, UniProt P29466); assay: Caspase-1 enzyme inhibition (Ki); type: biochemical; conditions: substrate Suc-YVAD-pNA 80 μM, 37° C., pH 7.5
T1 sequence (P29466 120-297 limits assumed): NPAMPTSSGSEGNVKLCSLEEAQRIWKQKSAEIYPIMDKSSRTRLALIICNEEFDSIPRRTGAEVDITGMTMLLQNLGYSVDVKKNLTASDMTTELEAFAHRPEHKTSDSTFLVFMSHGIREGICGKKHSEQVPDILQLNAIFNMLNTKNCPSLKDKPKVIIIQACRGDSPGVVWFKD
T1 sequence (P29466 317-404 limits assumed): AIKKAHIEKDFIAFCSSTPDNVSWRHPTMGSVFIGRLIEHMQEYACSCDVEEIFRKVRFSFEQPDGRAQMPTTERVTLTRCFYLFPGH
Method: Ki values for test compounds with the various caspases were obtained by the method of Margolin et al. (J. Biol. Chem., 272 pp. 7223-7228 (1997)). Assays were performed in 10 mM Tris (Sigma Corp, St Louis Mo.) pH 7.5, 1 mM Dithiothreitol (DTT, Research Organic INC, Cleveland, Ohio) and 0.1% CHAPS (Pierce, Rockford Ill.) at 37° C. For caspase-3, a solution of 8% glycerol was added to the assay buffer to improve enzyme stability. A 65 μL aliquot of the assay buffer and 5 μL aliquot of the appropriate dilutions of inhibitor in DMSO where pipetted into a 96 well plate, treated with 10 μL of caspase, then diluted in assay buffer (0.5-40 nM active protein by active site titration). A control containing DMSO but no compound was included for each determination. The plates were then incubated for 15 minutes at 37° C., before addition of the appropriate substrate (20 μL, final concentration 1-4×KM, final assay volume 100 μL) to initiate the reaction. Reaction rates were measured at 37° C. either by following the time dependant increase in absorbance at 405 nm (for the pNA substrates) or in fluorescence (Ex 390, Em 460) (for the AMC substrates). The rates obtained were plotted against inhibitor concentration and the data fit to the Morrison tight-binding equation for competitive inhibitors (Morrison, J. F., Biochem. Biophys. Acta, 185 pp. 269-286 (1969)). The substrates used for the individual assays were as follows:
Caspase-1 Suc-YVAD-pNA (Bachem, King of Prussia, Pa.) (final concentration in the assay 80 μM),

[1] = tested on: Human whole blood, IL-1β production; assay: Whole blood assay for IL-1β production; type: cell-based; conditions: LPS-stimulated whole blood, IL-1β by ELISA
Method: The whole blood assay is a simple method for measuring the production of IL-1β (or other cytokines) and the activity of potential inhibitors. The complexity of this assay system, with its full complement of lymphoid and inflammatory cell types, spectrum of plasma proteins and red blood cells is an ideal in vitro representation of human in vivo physiologic conditions.
Set incubator or water bath at 30° C. Aliquot 0.25 ml of blood into 1.5 ml eppendorf tubes. Note: be sure to invert the whole blood sample tubes after every two aliquots. Differences in replicates may result if the cells sediment and are not uniformly suspended. Use of a positive displacement pipette will also minimize differences between replicate aliquots.
Prepare drug dilutions in sterile pyrogen-free saline by serial dilution. A dilution series which brackets the apparent Ki for a test compound determined in an ICE inhibition assay is generally used for the primary compound screen. For extremely hydrophobic compounds, prepare compound dilutions in fresh plasma obtained from the same blood donor or in PBS-containing 5% DMSO to enhance solubility.
Add 25 μl test compound dilution or vehicle control and gently mix the sample. Then add 5.0 μl LPS solution (250 ng/ml stocked prepared fresh: 5.0 ng/ml final concentration LPS), and mix again. Incubate the tubes at […] in a water bath for 16-18 hr with occasional mixing. Alternatively, the tubes can be placed in a rotator set at 4 rpm for the same incubation period. This assay should be set up in duplicate or triplicate with the following controls: negative control—no LPS; positive control—no test inhibitor; vehicle control—the highest concentration of DMSO or compound solvent used in the experiment. Additional saline is added to all control tubes to normalize volumes for both control and experimental whole blood test samples.
After the incubation period, whole blood samples are centrifuged for 10 minutes at ^˜2000 rpm in the microfuge, plasma is transferred to a fresh microfuge tube and centrifuged at 1000×g to pellet residual platelets if necessary. Plasma samples may be stored frozen at −70° C. prior to assay for cytokine levels by ELISA.
R & D Systems (614 McKinley Place N.E. Minneapolis, Minn. 55413) Quantikine kits may be used for measurement of IL-1β and TNF-α. The assays are performed according to the manufacture's directions. IL-1β levels of ^˜1-5 ng/ml in positive controls among a range of individuals may be observed. A 1:200 dilution of plasma for all samples is usually sufficient for experiments for ELISA results to fall on the linear range of the ELISA standard curves. It may be necessary to optimize standard dilutions if you observe differences in the whole blood assay. Nerad, J. L. et al., J. Leukocyte Biol., 52, pp. 687-692 (1992).

Row | Structure (SMILES) | Ki (Caspase-1) [nM] | IC50 [1] [nM]
1 | C[C@H](NC(=O)c1cccc(C#N)c1)C(=O)N1CCC[C@H]1C(=O)N[C@H](C=O)CC(=O)O [Example 7ad] | 10 to 1000 | 2500 to 7500
2 | C[C@H](NC(=O)c1ccc(N(C)C)c(Cl)c1)C(=O)N1CCC[C@H]1C(=O)N[C@H](C=O)CC(=O)O [Example 122m, 3-({1-[2-(3-Chloro-4-dimethylamino-benzoylamino)-propionyl]-pyrrolidine-2-carbonyl}-amino)-4-oxo-butyric acid] | 10 to 1000 | 2500 to 7500
3 | COc1c(Cl)cc(C(=O)N[C@@H](C)C(=O)N2CC(F)(F)C[C@H]2C(=O)N[C@H](C=O)CC(=O)O)cc1Cl [Example 27h] | 10 to 1000 | 2500 to 7500
4 | CC(=O)Nc1ccc(C(=O)NC(C)C(=O)N2CC(F)(F)CC2C(=O)NC(C=O)CC(=O)O)cc1Cl (stereo not shown) [Example 123b, 3-({1-[2-(4-Acetylamino-3-chloro-benzoylamino)-propionyl]-4,4-difluoro-pyrrolidine-2-carbonyl}-amino)-4-oxo-butyric acid] | 10 to 1000 | 2500 to 7500
5 | Cc1ccc(Cl)cc1C(=O)N[C@@H](C)C(=O)N1CCC[C@H]1C(=O)N[C@H](C=O)CC(=O)O [Example 7an] | < 10 | 2500 to 7500
6 | Cc1c(Cl)cccc1C(=O)N[C@@H](C)C(=O)N1CCC[C@H]1C(=O)N[C@H](C=O)CC(=O)O [Example 7ao] | 10 to 1000 | 2500 to 7500
7 | C[C@H](NC(=O)c1ccc(Cl)c(Cl)c1)C(=O)N1CCC[C@H]1C(=O)N[C@H](C=O)CC(=O)O [Example 7aj] | < 10 | > 7500
8 | C[C@H](NC(=O)c1cccc(Cl)c1)C(=O)N1CCC[C@H]1C(=O)N[C@H](C=O)CC(=O)O [Example 7ah] | < 10 | 2500 to 7500
9 | C[C@H](NC(=O)c1cccc2ccccc12)C(=O)N1CC(F)(F)C[C@H]1C(=O)N[C@H](C=O)CC(=O)O [Example 27f] | 10 to 1000 | 2500 to 7500
10 | CC(NC(=O)c1ccc(N)c(Cl)c1)C(=O)N1CC(F)CC1C(=O)NC(C=O)CC(=O)O (stereo not shown) [Example 123a, 3-({1-[2-(4-Amino-3-chloro-benzoylamino)-propionyl]-4-fluoro-pyrrolidine-2-carbonyl}-amino)-4-oxo-butyric acid] | 10 to 1000 | < 2500
11 | COc1ccc(C(=O)N[C@@H](C)C(=O)N[C@@H](C)C(=O)N[C@H](C=O)CC(=O)O)cc1 [Example 29s] | 10 to 1000 | < 2500
12 | C[C@H](NC(=O)c1cc(Cl)cc(Cl)c1)C(=O)N1CCC[C@H]1C(=O)N[C@H](C=O)CC(=O)O [Example 7ai] | < 10 | 2500 to 7500
13 | C[C@H](NC(=O)c1ccc(NC(=O)C(C)(C)C)c(Cl)c1)C(=O)N1CCC[C@H]1C(=O)N[C@H](C=O)CC(=O)O [Example 122s, 3-[(1-{2-[3-Chloro-4-(2,2-dimethyl-propionylamino)-benzoylamino]-propionyl}-pyrrolidine-2-carbonyl)-amino]-4-oxo-butyric acid] | 10 to 1000 | 2500 to 7500
14 | CNc1ccc(C(=O)N[C@@H](C)C(=O)N2CCC[C@H]2C(=O)N[C@H](C=O)CC(=O)O)cc1Cl [Example 7aa] | < 10 | 2500 to 7500
15 | C[C@H](NC(=O)c1cc(Cl)c(O)c(Cl)c1)C(=O)N1CC(F)(F)C[C@H]1C(=O)N[C@H](C=O)CC(=O)O [Example 27g] | < 10 | 2500 to 7500
16 | C[C@H](NC(=O)c1ccc2ncccc2c1)C(=O)N1CCC[C@H]1C(=O)N[C@H](C=O)CC(=O)O [Example 122q, 4-Oxo-3-[(1-{2-[(quinoline-6-carbonyl)-amino]-propionyl}-pyrrolidine-2-carbonyl)-amino]-butyric acid] | 10 to 1000 | 2500 to 7500
17 | COc1c(C)cc(C(=O)N[C@@H](C)C(=O)N2CC(F)(F)C[C@H]2C(=O)N[C@H](C=O)CC(=O)O)cc1C [Example 27i] | 10 to 1000 | 2500 to 7500
18 | C[C@H](NC(=O)c1c(F)c(F)c(N)c(F)c1F)C(=O)N1CCC[C@H]1C(=O)N[C@H](C=O)CC(=O)O [Example 122p, 3-({1-[2-(4-Amino-2,3,5,6-tetrafluoro-benzoylamino)-propionyl]-pyrrolidine-2-carbonyl}-amino)-4-oxo-butyric acid] | < 10 | 2500 to 7500
19 | C[C@H](NC(=O)C(=O)c1ccccc1)C(=O)N1CCC[C@H]1C(=O)N[C@H](C=O)CC(=O)O [Example 7ap] | 10 to 1000 | > 7500
20 | CC[C@H](NC(=O)c1ccc(N)c(Cl)c1)C(=O)N1CC(F)(F)C[C@H]1C(=O)N[C@H](C=O)CC(=O)O [Example 27e] | 10 to 1000 | < 2500
21 | C[C@H](NC(=O)c1cccc(C(F)(F)F)c1)C(=O)N1CCC[C@H]1C(=O)N[C@H](C=O)CC(=O)O [Example 7am] | < 10 | 2500 to 7500
22 | C[C@H](NC(=O)c1nccc2ccccc12)C(=O)N1CC(F)(F)C[C@H]1C(=O)N[C@H](C=O)CC(=O)O [Example 27l] | 10 to 1000 | 2500 to 7500
23 | C[C@H](NC(=O)c1cccc(C(F)(F)F)c1)C(=O)N1CC(F)(F)C[C@H]1C(=O)N[C@H](C=O)CC(=O)O [Example 27m] | 10 to 1000 | 2500 to 7500
24 | Nc1ccc(C(=O)NCC(=O)N2CC(F)(F)C[C@H]2C(=O)N[C@H](C=O)CC(=O)O)cc1Cl [Example G2, 3-({1-[(4-Amino-3-chloro-benzoylamino)-acetyl]-4,4-difluoro-pyrrolidine-2-carbonyl}-amino)-4-oxo-butyric acid] | 10 to 1000 | 2500 to 7500
25 | C[C@H](NC(=O)c1ccc(F)c(Cl)c1)C(=O)N1CCC[C@H]1C(=O)N[C@H](C=O)CC(=O)O [Example 7ak] | < 10 | 2500 to 7500
26 | CC(C)[C@H](NC(=O)c1ccc(N)c(Cl)c1)C(=O)N1CC(F)(F)C[C@H]1C(=O)N[C@H](C=O)CC(=O)O [Example 27d] | < 10 | < 2500
27 | CC(Nc1ccccc1)C(=O)N1CCCC1C(=O)NC(C=O)CC(=O)O (stereo not shown) [Example 121, 4-Oxo-3-{[1-(2-phenylamino-propionyl)-pyrrolidine-2-carbonyl]-amino}-butyric acid] | > 1000 | 
28 | C[C@H](NC(=O)c1ccc2[nH]cnc2c1)C(=O)N1CC(F)(F)C[C@H]1C(=O)N[C@H](C=O)CC(=O)O [Example 27n] | 10 to 1000 | < 2500
